Source: publication PMC10424183, “Determination of Ligand-Binding Affinity (Kd) Using Transverse Relaxation Rate (R2) in the Ligand-Observed ^1H NMR Experiment and Applications to Fragment-Based Drug Discovery” (Journal of Medicinal Chemistry, 2023)
pIC50, pKd, pKi: −log10 of the molar value. Read-outs that look alike come from different tables or passages of the source.

Tests used:
[1] = biological target: T1, CRBN/DDB1 complex (Homo sapiens, UniProt Q96SW2); experiment: R2 values of fragment hits at two ligand concentrations (preliminary ranking); type: binding; conditions: 2 μM CRBN/DDB1 complex; for average R2, compound at 50 μM: 50 μM ligand; for average R2, compound at 200 μM: 200 μM ligand; for average R2, differences: R2 at 50 μM minus R2 at 200 μM
T1 construct: made in house
T1 sequence (Q96SW2 40-442 limits assumed, species assumed, one chain of several): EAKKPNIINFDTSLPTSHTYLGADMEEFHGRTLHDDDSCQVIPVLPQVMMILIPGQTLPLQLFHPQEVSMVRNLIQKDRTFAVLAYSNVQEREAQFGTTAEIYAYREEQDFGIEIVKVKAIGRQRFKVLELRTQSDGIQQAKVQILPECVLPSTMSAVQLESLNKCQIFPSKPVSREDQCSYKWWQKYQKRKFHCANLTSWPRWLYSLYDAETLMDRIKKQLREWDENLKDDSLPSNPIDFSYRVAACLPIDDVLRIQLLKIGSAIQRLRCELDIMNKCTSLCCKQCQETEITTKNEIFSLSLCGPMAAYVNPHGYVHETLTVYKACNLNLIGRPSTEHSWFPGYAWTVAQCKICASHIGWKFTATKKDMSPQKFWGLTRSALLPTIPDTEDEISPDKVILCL
Procedure: (§1) Here, we present how we used the R2KD assay to triage fragment hits against the CRBN/DDB1 complex. The CRBN/DDB1 complex is part of the E3 ligase system, with its thalidomide-binding domain (TBD) pocket critical for recruiting its substrate protein.[20] […] The R2 values of these fragments were measured at two ligand concentrations (200 and 50 μM) against 2 μM of the CRBN/DDB1 complex. This enabled preliminary ranking of hits. The hits with larger R2 differences rank higher. […] We also determined IC50 of the top 10 fragments using a FP based biochemical assay.[17]
(§2) The T2 relaxation experiment was acquired using pulse program CPMG with 3-9-19 pulse sequence with gradients incorporated to suppress the water signal.[22] Extra water suppression was achieved by adding presaturation during D1. The spin-echo period (delay-180°-delay) was set to 1 msec (d20 is 500 μs), and the relaxation delay (d1) was set to 10 s. The pseudo-2D experiment contained nine slices with spin-echo period repeated the following times: 4, 20, 100, 200, 300, 500, 700, 1000, and 2000.

[2] = biological target: T1, CRBN/DDB1 complex; experiment: FP based biochemical assay; type: binding; conditions: top 10 fragments
From the text: To determine the accuracy of Kd measured using the R2KD assay, we tested seven small molecule ligands (Figure 4) against three protein targets (BCL6, CRBN/DDB1 complex, and ERAP1) and compared their Kd values from the R2KD assay with known Ki values (Table 1) obtained in biochemical binding assays[15],[17],[18] or Kd value from the SPR binding assay.[19] We found good agreements between the Kd values and the Ki values, with most of them less than two-fold difference from those determined from biochemical or biophysical assays. […] We found the assay setup to be simple and positive controls unnecessary, making the approach suitable for new and challenging targets.
Here, we present how we used the R2KD assay to triage fragment hits against the CRBN/DDB1 complex. The CRBN/DDB1 complex is part of the E3 ligase system, with its thalidomide-binding domain (TBD) pocket critical for recruiting its substrate protein.[20] A fragment library, composed of around 1000 compounds, was screened using R2 relaxation edited ^1H-NMR experiments, with 19 fragments subsequently identified as competitive hits for the TBD pocket. The R2 values of these fragments were measured at two ligand concentrations (200 and 50 μM) against 2 μM of the CRBN/DDB1 complex. This enabled preliminary ranking of hits. The hits with larger R2 differences rank higher. […] We then measured the Kd values of the top 10 fragments using R2KD assay and confirmed the ranking order (Table 2). We also determined IC50 of the top 10 fragments using a FP based biochemical assay.[17]

[3] = biological target: T1, CRBN/DDB1 complex; conditions: known Ki from biochemical binding assay, Δ39CRBN/ΔBPBDDB1 complex; cited from earlier work
[4] = biological target: T1, CRBN/DDB1 complex; experiment: R2KD ligand-observed 1H NMR assay (Kd from transverse relaxation rate R2); type: binding
Procedure: (§3) 10 samples were prepared: samples 1–8 containing increasing ligand concentration (maintaining constant protein concentration); sample 9 and 10 containing only ligands at two different concentrations (protein absent). These two samples served as control samples to obtain the R2 values of free ligand. The final percentage of DMSO-d6 in all samples were identical to minimize possible impacts of DMSO-d6.
as §1, §2
Nonlinear regression analysis was carried out using GraphPad Prism 9.2.0. […] Three parameters: P, α, and Kd were in the equation with the initial value set at 1. […] CIs of parameters was calculated at 95% level using Asymmetrical (Profile-likelihood) CI.

[5] = biological target: BCL6 BTB domain; design: method as in PMID 35657291; conditions: known Ki from TR-FRET binding assay; cited from earlier work
[6] = biological target: T2, BCL6 BTB (Homo sapiens, UniProt P41182); experiment: R2KD ligand-observed 1H NMR assay (Kd from transverse relaxation rate R2); type: binding
T2 construct: made in house
Procedure: (§4) Four aqueous stock solutions were prepared in Eppendorf Safe-Lock tubes (Cat no. 0030120094) by manual pipetting: (1) ligand aqueous stock solution was prepared by adding 50 mM ligand DMSO-d6 solution to aqueous buffer; (2) dimethyl sulfoxide (DMSO) aqueous stock solution was prepared by adding the same volume of DMSO-d6 as ligand DMSO-d6 solution to aqueous buffer; (3) protein aqueous stock solution was prepared by adding protein solution to aqueous buffer; and (4) aqueous solution was the buffer used in the assay.
as §3, with “Samples were prepared on a Bruker SamplePro-Tube liquid handler by mixing different volume of the four aqueous stocks in 96-well microplates (Greiner 650201) and then transferred to 3 mm NMR tubes (Figure 2). 10 samples” for “10 samples”
The R2 values of four aromatic ^1H-NMR signals (Figure 3B) were experimentally determined (Figure 3C) and (R2,obs – R2F) * LT values were calculated using Excel and used as y-axis values in Prism, while ligand concentrations were plotted as the x-axis values (Figure 3D). All four NMR peaks were used to fit a global Kd with non-linear regression using a customized equation (see Experimental Section), while α values were fitted as an individual parameter for each peak (Figure 3E) as α values differ depending on the individual proton’s environment. While it was possible to fit Kd values using individual NMR peaks and then average the values (Figure 3F), we found using a global fitting algorithm increased robustness of curve fitting and better accommodated outliers in the data. The goodness of fit was judged by 95% confidence interval (CI) (profile likelihood) values and R squared value. The global Kd obtained here is close to the Ki value (54 vs 50 μM) although from our accuracy study, the differences can be larger (see section “Assay Accuracy”).
NMR data were collected at 298 K on a Bruker AVANCE NEO 600 MHz spectrometer, equipped with 5 mm TCI CryoProbe using Bruker Topspin 4.0. The T2 relaxation experiment was acquired using pulse program CPMG with 3-9-19 pulse sequence with gradients incorporated to suppress the water signal.[22] Extra water suppression was achieved by adding presaturation during D1. The spin-echo period (delay-180°-delay) was set to 1 msec (d20 is 500 μs), and the relaxation delay (d1) was set to 10 s. The pseudo-2D experiment contained nine slices with spin-echo period repeated the following times: 4, 20, 100, 200, 300, 500, 700, 1000, and 2000. The T2 relaxation experiment was processed using MestReNova 14.1, and Data Analysis Module of MestReNova was used to obtain integrals of individual ^1H-NMR signals, which were used to calculate R2 with equation I = I0exp (−tR2).
Nonlinear regression analysis was carried out using GraphPad Prism 9.2.0. Equation 12 was defined in user-defined equations as: Y = 0.5α*((X + Kd + P) −sqrt((sqr(X + Kd + P)) – 4*P*X)) where Y was calculated from eq 13 and X is the total ligand concentration. Three parameters: P, α, and Kd were in the equation with the initial value set at 1. In the default constraints setting, P was “constant equal to” the total protein concentration, Kd was “shared value for all data sets”, and α was “must be greater than […]”. CIs of parameters was calculated at 95% level using Asymmetrical (Profile-likelihood) CI.

[7] = biological target: T3, ERAP1 (Homo sapiens, UniProt Q9NZ08); experiment: as above; type: binding; conditions: repeated three times (average)
T3 construct: made in house
T3 sequence (Q9NZ08 whole entry, species assumed): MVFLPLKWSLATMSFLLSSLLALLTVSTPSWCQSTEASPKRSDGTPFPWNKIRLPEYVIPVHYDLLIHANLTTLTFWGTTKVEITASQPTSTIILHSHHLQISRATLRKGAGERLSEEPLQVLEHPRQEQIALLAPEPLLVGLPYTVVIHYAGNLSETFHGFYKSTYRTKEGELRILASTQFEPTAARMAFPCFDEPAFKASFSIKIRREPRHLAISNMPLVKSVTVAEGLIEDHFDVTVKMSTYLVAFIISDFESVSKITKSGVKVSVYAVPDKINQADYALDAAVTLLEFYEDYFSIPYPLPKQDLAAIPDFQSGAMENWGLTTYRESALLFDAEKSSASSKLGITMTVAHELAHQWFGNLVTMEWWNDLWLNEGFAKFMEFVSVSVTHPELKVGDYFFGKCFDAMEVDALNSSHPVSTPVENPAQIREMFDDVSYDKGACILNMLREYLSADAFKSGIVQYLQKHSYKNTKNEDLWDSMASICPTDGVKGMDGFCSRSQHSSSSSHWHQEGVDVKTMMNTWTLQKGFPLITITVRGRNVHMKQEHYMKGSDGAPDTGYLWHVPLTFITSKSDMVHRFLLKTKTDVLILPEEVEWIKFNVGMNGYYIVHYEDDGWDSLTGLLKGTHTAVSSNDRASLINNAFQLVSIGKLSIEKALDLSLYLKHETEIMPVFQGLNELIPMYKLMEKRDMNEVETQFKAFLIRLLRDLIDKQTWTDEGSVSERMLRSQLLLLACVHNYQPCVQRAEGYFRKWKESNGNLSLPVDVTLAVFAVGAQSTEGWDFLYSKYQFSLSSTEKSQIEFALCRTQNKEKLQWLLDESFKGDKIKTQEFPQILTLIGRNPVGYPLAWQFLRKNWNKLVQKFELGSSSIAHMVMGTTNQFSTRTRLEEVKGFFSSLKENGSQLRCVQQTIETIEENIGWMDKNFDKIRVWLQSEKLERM
Procedure: as §4
Samples were prepared on a Bruker SamplePro-Tube liquid handler by mixing different volume of the four aqueous stocks in 96-well microplates (Greiner 650201) and then transferred to 3 mm NMR tubes (Figure 2). 10 samples were prepared: samples 1–8 containing increasing ligand concentration (maintaining constant protein concentration); sample 9 and 10 containing only ligands at two different concentrations (protein absent). These two samples served as control samples to obtain the R2 values of free ligand. […]
Nonlinear regression analysis was carried out using GraphPad Prism 9.2.0. Equation 12 was defined in user-defined equations as: Y = 0.5α*((X + Kd + P) −sqrt((sqr(X + Kd + P)) – 4*P*X)) where Y was calculated from eq 13 and X is the total ligand concentration. […] CIs of parameters was calculated at 95% level using Asymmetrical (Profile-likelihood) CI.

[8] = biological target: T3, ERAP1; design: method as in PMID 31841350; conditions: known Ki from biochemical binding assay; cited from earlier work
[9] = R2KD assay, Δ39CRBN/ΔBPBDDB1 complex, repeated three times (average), read-out: Kd
[10] = fragment hit triage, top 10 fragments, read-out: R2KD assay Kd
[11] = R2KD assay, repeated three times (average), read-out: Kd

| Structure (SMILES) | average R2, compound at 50 μM [1] | average R2, compound at 200 μM [1] | average R2, differences [1] | pIC50 [2] | pKd [4, 10] | also measured |
| --- | --- | --- | --- | --- | --- | --- |
| Cc1ccc(N2CC(=O)NC2=O)cc1 [CCT010354] | 4.9 | 2 | 2.9 | 3.62 | 3.91 | pKi [3]: 3.53; pKd [4, 9]: 3.81 |
| CNC(=O)c1nc(-c2ccccc2)n(-c2ccccc2)n1 [CCT226703] | 1.5 | 1.4 | 0.1 |  |  |  |
| CCOc1cccc(C2CC(=O)NC3=C2C(=O)CCC3)c1 (centres unmarked) [CCT228041] | 1.6 | 1.5 | 0.1 |  |  |  |
| N#CCCCN1C(=O)COc2ccc(Cl)cc21 [CCT228155] | 3 | 2.2 | 0.8 | 2.78 | 3.10 |  |
| CCOc1ccc(C2CNC(=O)C2)cc1 (centres unmarked) [CCT239822] | 3.6 | 2.4 | 1.2 | 3.11 | 3.27 |  |
| O=CN1CCN(Cc2c(F)cccc2Cl)CC1 [CCT240107] | 1.6 | 1.5 | 0.1 |  |  |  |
| O=CN1CCN(Cc2cccc(Cl)c2)CC1 [CCT240121] | 3.8 | 3.3 | 0.4 |  |  |  |
| O=C(c1ccc(F)cc1)N1CCN(c2ccccc2)CC1 [CCT240195] | 1.6 | 1.4 | 0.2 |  |  |  |
| O=c1ccn(Cc2ccccc2)c(=O)[nH]1 [CCT240207] | 3.4 | 1.2 | 2.2 | 3.77 | 4.07 |  |
| COc1ccc(C(=O)N2CCN(c3ccccn3)CC2)cc1 [CCT240246] | 1.5 | 1.3 | 0.2 |  |  |  |
| Nc1ccc(C(=O)NCC2COc3ccccc3O2)cc1 (centres unmarked) [CCT240545] | 2 | 1.5 | 0.5 | < 2.52 | 3.20 |  |
| COC(=O)c1ccc2c(c1)NC(=O)CO2 [CCT240569] | 7.2 | 2.6 | 4.6 | 3.82 | 4.14 | pKi [3]: 3.85; pKd [4, 9]: 4.06 |
| CC(=O)N1CCN(S(=O)(=O)c2ccc(C(C)C)cc2)CC1 [CCT240867] | 1.2 | 1.1 | 0.1 |  |  |  |
| CC(=O)Nc1cc2c(cc1C(=O)C(C)C)OCCO2 [CCT242848] | 3.8 | 2.5 | 1.2 | < 2.52 | 3.27 |  |
| COc1cc2c(cc1OC)C(c1cccc(O)c1)CC(=O)N2 (centres unmarked) [CCT242858] | 2.5 | 2.1 | 0.5 | 2.86 | 2.92 |  |
| N#CCCCn1c(=O)oc2ccc(Cl)cc21 [CCT242918] | 1.6 | 1.3 | 0.3 |  |  |  |
| Cc1nccc(Nc2cnn(CCO)c2)c1C#N [CCT365133] |  |  |  |  |  | pKi [5]: 4.30; pKd ([6]; 5 μM BCL6, average of Peaks 1-4, unit inferred, read-out: Kd, average of individual peak fits): 4.21; pKd ([6]; 5 μM BCL6, individual peak fit, unit inferred, read-out: Kd fitted using individual peak, Peak 1): 4.26; pKd ([6]; 5 μM BCL6, individual peak fit, unit inferred, read-out: Kd fitted using individual peak, Peak 2): 4.28; pKd ([6]; 5 μM BCL6, individual peak fit, unit inferred, read-out: Kd fitted using individual peak, Peak 3): 4.11; pKd ([6]; 5 μM BCL6, individual peak fit, unit inferred, read-out: Kd fitted using individual peak, Peak 4): 4.25; pKd ([6]; 5 μM protein, peak 3, read-out: Kd at 5 μM protein): 4.15; pKd ([6]; 25 μM protein, peak 3, read-out: Kd at 25 μM protein): 4.24; pKd ([6]; 35 μM protein, peak 3, read-out: Kd at 35 μM protein): 4.15; pKd [6, 11]: 4.29; pKd ([6]; ligand concentration increasing to 500 μM, no solubility limit, read-out: Kd, data set B): 4.17; Kd of data set A relative to data set B ([6]; limited solubility mimic versus full concentration series): around 10 fold; pKd ([6]; simplified graphical presentation, unit inferred, read-out: KD, curve fitting using calculated bound ligand concentration [PL]): 4.24; pKd ([6]; single experiment, 5 μM BCL6, ligand 50-500 μM, four aromatic peaks, global Kd fitting, read-out: Kd, global (shared) fit): 4.27 |
| CC[C@H](O)Cn1c(=O)n(C)c2ccc(Nc3ccnc(Cl)c3C#N)cc21 [CCT367090] |  |  |  |  |  | pKi [5]: 5.40; pKd [6, 11]: 5.15 |
| O=C(O)c1cccc(S(=O)(=O)Nc2ccccc2N2CCCCC2)c1 [CCT369304] |  |  |  |  |  | pKd [7]: 3.71; pKi [8]: 4.48 |
